Test results reported in patent EP4678638A1, “NEW E3 UBIQUITIN LIGASE LIGAND, PROTEIN DEGRADATION AGENT AND USE THEREOF” (priority 2023, dated 2024).

Key:
[1] = target: T1, RSK1 (Homo sapiens, UniProt Q15418); assay: Western blot degradation of RSK1 (hPBMC); type: cell-based; settings: Table D8
T1 construct: evaluate the effects of the compounds of the present disclosure on the expression of target proteins in cells; endogenous in cells; host or cells: hPBMC
Summary of the method: (§1)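 After compound exposure, cells were harvested and lysates run on SDS-PAGE, transferred to nitrocellulose and probed with antibodies. Remaining target (%) was computed from band grayscale relative to an internal control protein and normalised; degradation (%) was 100% minus that.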

[2] = target: T2, RSK2 (Homo sapiens, UniProt P51812); assay: Western blot degradation of RSK2 (hPBMC); type: cell-based; settings: Table D8
T2 construct: evaluate the effects of the compounds of the present disclosure on the expression of target proteins in cells; endogenous in cells; host or cells: hPBMC
T2 sequence (P51812 whole entry): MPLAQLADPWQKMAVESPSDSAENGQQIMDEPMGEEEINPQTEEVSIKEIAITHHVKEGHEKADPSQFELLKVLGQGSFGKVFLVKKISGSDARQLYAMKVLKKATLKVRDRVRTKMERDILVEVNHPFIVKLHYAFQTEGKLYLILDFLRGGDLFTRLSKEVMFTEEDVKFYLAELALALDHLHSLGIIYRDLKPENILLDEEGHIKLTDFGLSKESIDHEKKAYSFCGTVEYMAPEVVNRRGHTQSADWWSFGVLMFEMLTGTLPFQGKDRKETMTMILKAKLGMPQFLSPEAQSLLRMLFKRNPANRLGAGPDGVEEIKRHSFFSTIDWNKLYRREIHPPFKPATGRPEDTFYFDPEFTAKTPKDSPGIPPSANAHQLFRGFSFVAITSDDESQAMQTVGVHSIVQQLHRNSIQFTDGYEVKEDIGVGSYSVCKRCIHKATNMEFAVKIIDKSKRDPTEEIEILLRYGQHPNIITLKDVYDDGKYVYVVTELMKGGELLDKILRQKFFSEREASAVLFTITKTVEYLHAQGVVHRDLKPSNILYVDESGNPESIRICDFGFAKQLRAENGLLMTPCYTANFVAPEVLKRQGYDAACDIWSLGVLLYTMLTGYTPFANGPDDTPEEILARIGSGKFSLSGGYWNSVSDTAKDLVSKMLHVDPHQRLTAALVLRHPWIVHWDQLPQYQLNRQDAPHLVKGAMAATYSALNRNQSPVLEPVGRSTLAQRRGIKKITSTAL
Summary of the method: as §1

T1 sequence (Q15418 whole entry): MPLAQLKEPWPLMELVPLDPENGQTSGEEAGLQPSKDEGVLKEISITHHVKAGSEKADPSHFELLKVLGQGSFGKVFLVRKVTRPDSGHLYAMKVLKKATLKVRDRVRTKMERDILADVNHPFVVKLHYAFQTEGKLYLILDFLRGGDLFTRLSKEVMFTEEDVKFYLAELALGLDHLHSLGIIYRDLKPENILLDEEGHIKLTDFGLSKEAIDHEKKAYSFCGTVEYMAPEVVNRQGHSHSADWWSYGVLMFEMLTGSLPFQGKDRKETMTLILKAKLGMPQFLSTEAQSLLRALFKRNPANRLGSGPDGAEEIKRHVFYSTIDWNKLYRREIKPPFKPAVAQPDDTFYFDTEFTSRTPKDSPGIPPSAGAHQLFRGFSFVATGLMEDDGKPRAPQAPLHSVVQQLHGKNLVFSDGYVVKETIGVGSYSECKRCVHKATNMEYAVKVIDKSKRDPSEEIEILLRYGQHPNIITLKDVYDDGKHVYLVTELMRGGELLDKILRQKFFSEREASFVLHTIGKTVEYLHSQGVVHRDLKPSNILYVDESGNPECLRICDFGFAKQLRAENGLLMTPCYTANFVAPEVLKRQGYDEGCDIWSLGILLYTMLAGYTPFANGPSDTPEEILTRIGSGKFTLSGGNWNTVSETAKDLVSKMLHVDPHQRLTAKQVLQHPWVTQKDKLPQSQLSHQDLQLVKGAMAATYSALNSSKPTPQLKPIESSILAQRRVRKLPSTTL

| SMILES | Degradation of substrate protein RSK1 (substrate protein remaining %) [1] | Degradation of substrate protein RSK2 (substrate protein remaining %) [2] |
| --- | --- | --- |
| C[C@@H]1CNC(=O)c2cc3ccc(C(=O)Nc4cnn(Cc5ccc(N6CCC(N(C)Cc7cc(N8CCC(=O)NC8=O)ncc7F)CC6)cc5)c4)nc3n21 [GT-07943, (R)-N-(1-(4-(4-(((2-(2,4-dioxotetrahydropyrimidin-1(2H)-yl)-5-fluoropyridin-4-yl)methyl)(methyl)amino)piperidin-1-yl)benzyl)-1H-pyrazol-4-yl)-9-methyl-6-oxo-6,7,8,9-tetrahydropyrido[3',2':4,5]py rrolo[1,2-a]pyrazine-2-carboxamide] | A (A is defined as 0% ≤ substrate protein remaining % ≤ 80%) | A (A is defined as 0% ≤ substrate protein remaining % ≤ 80%) |
| C[C@@H]1CNC(=O)c2cc3ccc(C(=O)Nc4cnn(Cc5ccc(N6CCC(N(C)Cc7ccc(C8CCC(=O)NC8=O)cc7)CC6)cc5)c4)nc3n21 (stereo partly drawn) [GT-07937, (9R)-N-(1-(4-(4-((4-(2,6-dioxopiperidin-3-yl)benzyl)(methyl)amino)piperidin-1-yl)benzyl)-1H-pyrazol-4-yl)-9-methyl-6-oxo-6,7,8,9-tetrahydropyrido[3',2':4,5]py rrolo[1,2-a]pyrazine-2-carboxamide] | A (A is defined as 0% ≤ substrate protein remaining % ≤ 80%) | B (B is defined as substrate protein remaining % > 80%) |
| C[C@@H]1CNC(=O)c2cc3ccc(C(=O)Nc4cnn(Cc5ccc(N6CCC(N7CCN(Cc8ccnc(N9CCC(=O)NC9=O)c8)CC7)CC6)cc5)c4)nc3n21 [GT-07958, (R)-N-(1-(4-(4-(4-((2-(2,4-dioxotetrahydropyrimidin-1(2H)-yl)pyridin-4-yl)methyl)piperazin-1-yl)piperidin-1-yl)benzyl)-1H-pyrazol-4-yl)-9-methyl-6-oxo-6,7,8,9-tetrahydropyrido[3',2':4,5]pyrrolo[1,2-a]pyrazine-2-carboxamide] | A (A is defined as 0% ≤ substrate protein remaining % ≤ 80%) | A (A is defined as 0% ≤ substrate protein remaining % ≤ 80%) |
| C[C@@H]1CNC(=O)c2cc3ccc(C(=O)Nc4cnn(Cc5ccc(N6CCN(Cc7cncc(C8CCC(=O)NC8=O)c7)CC6)cc5)c4)nc3n21 (stereo partly drawn) [GT-07934, (9R)-N-(1-(4-(4-((5-(2,6-dioxopiperidin-3-yl)pyridin-3-yl)methyl)piperazin-1-yl)benzyl)-1H-pyrazol-4-yl)-9-methyl-6-oxo-6,7,8,9-tetrahydropyrido[3',2':4,5]py rrolo[1,2-a]pyrazine-2-carboxamide] | A (A is defined as 0% ≤ substrate protein remaining % ≤ 80%) | B (B is defined as substrate protein remaining % > 80%) |
| C[C@@H]1CNC(=O)c2cc3ccc(C(=O)Nc4cnn(Cc5ccc(N6CCC(N(C)Cc7cccc(NC8CCC(=O)NC8=O)c7)CC6)cc5)c4)nc3n21 (stereo partly drawn) [GT-07942, (9R)-N-(1-(4-(4-((3-((2,6-dioxopiperidin-3-yl)amino)benzyl)(methyl)amino)piperidin-1-yl)benzyl)-1H-pyrazol-4-yl)-9-methyl-6-oxo-6,7,8,9-tetrahydropyrido[3',2':4,5]py rrolo[1,2-a]pyrazine-2-carboxamide] | A (A is defined as 0% ≤ substrate protein remaining % ≤ 80%) | A (A is defined as 0% ≤ substrate protein remaining % ≤ 80%) |
| C[C@@H]1CNC(=O)c2cc3ccc(C(=O)Nc4cnn(Cc5ccc(N6CCN(Cc7ccc(N8CCC(=O)NC8=O)nc7)CC6)cc5)c4)nc3n21 [GT-07930, (R)-N-(1-(4-(4-((6-(2,4-dioxotetrahydropyrimidin-1(2H)-yl)pyridin-3-yl)methyl)piperazin-1-yl)benzyl)-1H-pyrazol-4-yl)-9-methyl-6-oxo-6,7,8,9-tetrahydropyrido[3',2':4,5]py rrolo[1,2-a]pyrazine-2-carboxamide] | A (A is defined as 0% ≤ substrate protein remaining % ≤ 80%) | B (B is defined as substrate protein remaining % > 80%) |
| C[C@@H]1CNC(=O)c2cc3ccc(C(=O)Nc4cnn(Cc5ccc(N6CCC(N7CCN(Cc8ccc(N9CCC(=O)NC9=O)cc8)CC7)CC6)cc5)c4)nc3n21 [GT-07952, (R)-N-(1-(4-(4-(4-(4-(2,4-dioxotetrahydropyrimidin-1(2H)-yl)benzyl)piperazin-1-yl)piperidin-1-yl)benzyl)-1H-pyrazol-4-yl)-9-methyl-6-oxo-6,7,8,9-tetrahydropyrido[3',2':4,5]pyrrolo[1,2-a]pyrazine-2-carboxamide] | A (A is defined as 0% ≤ substrate protein remaining % ≤ 80%) | A (A is defined as 0% ≤ substrate protein remaining % ≤ 80%) |
| C[C@@H]1CNC(=O)c2cc3ccc(C(=O)Nc4cnn(Cc5ccc(N6CCN(Cc7cncc(N8CCC(=O)NC8=O)c7)CC6)cc5)c4)nc3n21 [GT-07925, (R)-N-(1-(4-(4-((5-(2,4-dioxotetrahydropyrimidin-1(2H)-yl)pyridin-3-yl)methyl)piperazin-1-yl)benzyl)-1H-pyrazol-4-yl)-9-methyl-6-oxo-6,7,8,9-tetrahydropyrido[3',2':4,5]py rrolo[1,2-a]pyrazine-2-carboxamide] | A (A is defined as 0% ≤ substrate protein remaining % ≤ 80%) | B (B is defined as substrate protein remaining % > 80%) |
| C[C@@H]1CNC(=O)c2cc3ccc(C(=O)Nc4cnn(Cc5ccc(N6CCC(N(C)Cc7ccc(N8CCC(=O)NC8=O)cn7)CC6)cc5)c4)nc3n21 [GT-07940, (R)-N-(1-(4-(4-(((5-(2,4-dioxotetrahydropyrimidin-1(2H)-yl)pyridin-2-yl)methyl)(methyl)amino)piperidin-1-yl)benzyl)-1H-pyrazol-4-yl)-9-methyl-6-oxo-6,7,8,9-tetrahydropyrido[3',2':4,5]py rrolo[1,2-a]pyrazine-2-carboxamide] | A (A is defined as 0% ≤ substrate protein remaining % ≤ 80%) | A (A is defined as 0% ≤ substrate protein remaining % ≤ 80%) |
| C[C@@H]1CNC(=O)c2cc3ccc(C(=O)Nc4cnn(Cc5ccc(N6CCC(N7CCN(Cc8ccc(C9CCC(=O)NC9=O)cc8)CC7)CC6)cc5)c4)nc3n21 (stereo partly drawn) [GT-07951, (9R)-N-(1-(4-(4-(4-(4-(2,6-dioxopiperidin-3-yl)benzyl)piperazin-1-yl)piperidin-1-yl)benzyl)-1H-pyrazol-4-yl)-9-methyl-6-oxo-6,7,8,9-tetrahydropyrido[3',2':4,5]py rrolo[1,2-a]pyrazine-2-carboxamide] | A (A is defined as 0% ≤ substrate protein remaining % ≤ 80%) | A (A is defined as 0% ≤ substrate protein remaining % ≤ 80%) |
| C[C@@H]1CNC(=O)c2cc3ccc(C(=O)Nc4cnn(Cc5ccc(N6CCC(N7CCN(Cc8cnc(N9CCC(=O)NC9=O)cn8)CC7)CC6)cc5)c4)nc3n21 [GT-07963, (R)-N-(1-(4-(4-(4-((5-(2,4-dioxotetrahydropyrimidin-1(2H)-yl)pyrazin-2-yl)methyl)piperazin-1-yl)piperidin-1-yl)benzyl)-1H-pyrazol-4-yl)-9-methyl-6-oxo-6,7,8,9-tetrahydropyrido[3',2':4,5]pyrrolo[1,2-a]pyrazine-2-carboxamide] | A (A is defined as 0% ≤ substrate protein remaining % ≤ 80%) | A (A is defined as 0% ≤ substrate protein remaining % ≤ 80%) |
| C[C@@H]1CNC(=O)c2cc3ccc(C(=O)Nc4cnn(Cc5ccc(N6CCC(N7CCN(Cc8ccc(N9CCC(=O)NC9=O)nc8)CC7)CC6)cc5)c4)nc3n21 [GT-07955, (R)-N-(1-(4-(4-(4-((6-(2,4-dioxotetrahydropyrimidin-1(2H)-yl)pyridin-3-yl)methyl)piperazin-1-yl)piperidin-1-yl)benzyl)-1H-pyrazol-4-yl)-9-methyl-6-oxo-6,7,8,9-tetrahydropyrido[3',2':4,5]pyrrolo[1,2-a]pyrazine-2-carboxamide] | A (A is defined as 0% ≤ substrate protein remaining % ≤ 80%) | A (A is defined as 0% ≤ substrate protein remaining % ≤ 80%) |
| C[C@@H]1CNC(=O)c2cc3ccc(C(=O)Nc4cnn(Cc5ccc(N6CCC(N(C)Cc7cc(N8CCC(=O)NC8=O)cnc7F)CC6)cc5)c4)nc3n21 [GT-07949, (R)-N-(1-(4-(4-(((5-(2,4-dioxotetrahydropyrimidin-1(2H)-yl)-2-fluoropyridin-3-yl)methyl)(methyl)amino)piperidin-1-yl)benzyl)-1H-pyrazol-4-yl)-9-methyl-6-oxo-6,7,8,9-tetrahydropyrido[3',2':4,5]py rrolo[1,2-a]pyrazine-2-carboxamide] | A (A is defined as 0% ≤ substrate protein remaining % ≤ 80%) | A (A is defined as 0% ≤ substrate protein remaining % ≤ 80%) |
| C[C@@H]1CNC(=O)c2cc3ccc(C(=O)Nc4cnn(Cc5ccc(N6CCC(N(C)Cc7cncc(C8CCC(=O)NC8=O)c7)CC6)cc5)c4)nc3n21 (stereo partly drawn) [GT-07948, (9R)-N-(1-(4-(4-(((5-(2,6-dioxopiperidin-3-yl)pyridin-3-yl)methyl)(methyl)amino)piperidin-1-yl)benzyl)-1H-pyrazol-4-yl)-9-methyl-6-oxo-6,7,8,9-tetrahydropyrido[3',2':4,5]py rrolo[1,2-a]pyrazine-2-carboxamide] | A (A is defined as 0% ≤ substrate protein remaining % ≤ 80%) | A (A is defined as 0% ≤ substrate protein remaining % ≤ 80%) |
